For the test, the system named is P. falciparum 3D7 growth, pLDH absorbance. In words: blood-stage malaria parasite growth potency – strain 3D7, dose response (AID 2305).
`CCNc1cc(C(=O)N[C@@H](Cc2ccccc2)[C@H](O)CNC(C)CCCC(C)C)cc(N2CCCS2(=O)=O)c1` (stereo not given in full) yielded an IC50 of 220 nM.
The result for `CC(=O)Nc1cccc(C(=O)Nc2cccc(-c3csc(-c4nc5ccccc5[nH]4)c3)c2)c1` reads 180 nM.
The result for `COc1cc(Nc2nccc(N3CCC(NC(=O)C(C)c4ccc(Cl)cc4)C3)n2)cc(OC)c1OC` (stereo not given) reads 760 nM.
The result for `CCCCOc1ccc(-n2c(Nc3ccccc3)nc3cc(S(N)(=O)=O)ccc32)cc1` reads 890 nM.
As to `CCc1cn2c3c(cc(C(=O)N[C@@H](Cc4cccc(Cl)c4)[C@H](O)CNC4CC4)cc13)N(C)S(=O)(=O)CC2`, the IC50 came out at 150 nM.
The result for `OCCN1CCN(Cc2ccc(-c3ccc(-c4nc5ccccc5[nH]4)cc3)cc2)CC1` reads 620 nM; that for `Cc1cc(N(C)C2CCN(CC3CCCCC3)C2)nc(Nc2ccc(Br)cc2)n1` (stereo not given), 700 nM.
`COc1ccc2nccc([C@@H](O)CN3CCC(NCc4ccc5c(c4)nnn5C(C)C)CC3)c2c1` came in with an IC50 of 640 nM.
Molecule `NC(N)=NN=Cc1c2ccccc2c(Cl)c2cc(Cl)ccc12` came in with an IC50 of 790 nM.
The molecule `O=C(Nc1ccc(C(F)(F)F)cc1)c1cc(Br)cnc1NCCCn1ccnc1` had an IC50 of 970 nM.
Next, `Nc1c(Cl)cc(C(O)CNCCCCCOCCCc2ccc3ncccc3c2)cc1Cl` (stereo not given): 980 nM; `CCOc1cc(CC)ccc1C1CCN(CCN2CCC(CNC(=O)c3ccc(-c4ccc(C#N)cc4)cc3)CC2)CC1`: 710 nM; `CCN1CCC(N2CCC(n3c(C)nc4cc(C(F)(F)F)ccc43)CC2)CC1`: 1020 nM.
Next, `O=C(NC12CC3CC(CC(C3)C1)C2)C(=O)c1c[nH]c2ccccc12`: 230 nM.
Next, `Cc1[nH]c2c(C)cccc2c1C1CCN(CCC2CCN(C(=O)/C=C/c3ccc(Cl)c(Cl)c3)CC2)CC1`: 640 nM; `CN(C)CCN(Cc1ccccc1)c1ccc([N+](=O)[O-])cc1C(F)(F)F`: 780 nM.
`CC(C)C1=C[C@H]2C[C@]3(C4OCCO4)[C@@H]4CC[C@@H](C)[C@H]4C[C@@]2(C(=O)OCC2COCO2)[C@]13C(=O)OC(c1ccccc1)c1ccccc1` (stereo not given in full): the IC50 amounted to 850 nM.
The molecule `CC(C)(C)c1ccccc1SC1=C(O)CC2(CCNCC2)OC1=O` gave an IC50 of 880 nM.
The molecule `CN1c2ccc([N+](=O)[O-])cc2C(C)(C)C12C=Cc1cc(Br)cc([N+](=O)[O-])c1O2` (stereo not given) gave an IC50 of 780 nM.
The result for `Cc1cccc(Cn2nc(-c3ccccc3)c(N3CCCCC3)cc2=O)c1` reads 460 nM; that for `O=[N+]([O-])c1ccc2c(-c3ccccc3)c(-c3ccccc3)n(O)c2c1`, 990 nM.
The result for `Cc1cnc2ccc(NS(=O)(=O)c3ccc4c(Cl)cccc4c3)cc2c1N1CCNCC1` reads 750 nM; that for `Cc1cc(NCCC(=O)NCCOc2ccccc2)nc(NCCc2ccccc2)n1`, 1230 nM.
The result for `Cc1cc(CN2CCC(N3CC(c4ccccc4)(c4ccccc4)OC3=O)C2)ccc1O` (stereo not given) reads 780 nM; that for `COc1ccc(Nc2nccc(N3CCC(NS(=O)(=O)c4ccc(NC(C)=O)cc4)C3)n2)cc1` (stereo not given), 800 nM.
As to `CCCC(C)NC(=O)[C@H](CC1CCCCC1)NC(=O)c1ccc(O)c(-c2ccc(OC)cc2)c1` (stereo not given in full), the IC50 amounted to 1130 nM.
The molecule `COc1ccc2c(OC)cccc2c1CNCCCCCCNCc1c(OC)ccc2c(OC)cccc12` had an IC50 of 690 nM.
Molecule `Cn1c(-c2ccccc2)cc2c3c(N)nc(N)nc3ccc21` gave an IC50 of 890 nM.
The molecule `CC(C)c1ccc(NC(=O)NC2CCN(CCCCCN(C)C(=O)/C=C/c3ccc(Cl)c(Cl)c3)C2)cc1` (stereo not given) came in with an IC50 of 830 nM.
`COc1ccc(N2CCN(CCCN3CCN(C(=O)c4ccc(/C=C/c5ccc(Cl)c(Cl)c5)cc4)CC3)CC2)c(OC)c1` had an IC50 of 910 nM.
The result for `CC(C)c1cccc(C(NC(=O)[C@H]2Cc3ccccc3CN2C(=O)c2cccc(N3CCOCC3)c2)C2CCCC2)c1` (stereo not given in full) reads 720 nM; that for `Cc1[nH]c(C)c(-c2ccc(-c3ccc(F)cc3)nc2)c(=O)c1Br`, 250 nM.
The result for `Cc1ccc2c(c1C)NC(=O)C21NN=C(c2ccccc2)S1` (stereo not given) reads 750 nM; that for `Clc1ccc(CNCCCCCCNCc2ccc(Cl)cc2)cc1`, 850 nM.
Take `O=c1cc(NCCCNCc2ccc(C(F)(F)F)cc2F)[nH]c2ccccc12`: the IC50 was determined as 960 nM.
`COc1ccc(-c2ccc3c(-c4cccc(S(C)(=O)=O)c4)cnc(N)c3c2)cc1` displayed an IC50 of 1330 nM.
In the case of `Cc1ccc(CN2CCCN(Cc3cccc(NC(=O)c4cc5ccccc5s4)c3)CC2)cc1C`, the IC50 was found to be 730 nM.
`CCc1ccc(S(=O)(=O)Nc2cccc(CCN3CCC(N4CCCCC4)CC3)c2)cc1` yielded an IC50 of 900 nM.
The result for `O=S(=O)(ON=C1CCc2ccccc21)c1ccc(Cl)cc1` reads 1310 nM; that for `O=C(O)c1ccc(-c2cnc3ccc(NC4CCC(O)CC4)nn23)cc1` (stereo not given), 1000 nM.
`Cc1ccc2nc(C)cc(NN=Cc3cccc(Cl)c3)c2c1` gave an IC50 of 740 nM.
Next, `COc1cc(NCC(C)CNCc2cn(Cc3ccccc3)c3ccccc23)nc2ccccc12` (stereo not given): 630 nM; `CC(C)(C)c1ccc(CN2CCC(NC(=O)c3ccc(-c4cccc(F)c4)s3)CC2)cc1`: 1090 nM; `COc1ccccc1CCNc1nc(C)cc(NCCC(=O)Nc2ccccc2)n1`: 810 nM.
Molecule `Clc1cccc(C=NNc2nc(Nc3ccccc3)nc(Nc3ccccc3)n2)c1` registered an IC50 of 840 nM.
Next, `COc1ccc(F)cc1-c1ccccc1CNC(=O)c1cnn(-c2ccc([N+](=O)[O-])cc2)c1C(F)(F)F`: 600 nM; `Cc1cc(N2CCCCC2)nc2ccc(NC(=O)c3cccc([N+](=O)[O-])c3)cc12`: 380 nM.
Next, `CN1CCN(CC(=O)Nc2cccc(-c3cccc(-c4nc5ccccc5[nH]4)c3)c2)CC1`: 1290 nM; `CS(=O)(=O)Nc1cccc(-c2cnc3[nH]cc(-c4cc(N)cc(C(=O)O)c4)c3c2)c1`: 1080 nM.
Next, `CCCCN1CC[C@@H](CCC(O)c2ccnc3ccc(OCCC(C)C)cc23)[C@@H](CC)C1` (stereo not given in full): 990 nM.
On to `CNC(=O)C1Cc2c([nH]c3cc(Cl)ccc23)C2(CCN(CCc3ccccc3)CC2)N1` (stereo not given), for which the IC50 amounted to 930 nM.
The result for `CNCCNCc1cccc(-c2ccc(-c3nc4c(C)cccc4[nH]3)cc2)c1` reads 800 nM; that for `CC(=O)Nc1ccc(CN2CCC(N(C)c3cc(NC(=O)c4cccc(F)c4)ccn3)CC2)cc1`, 1380 nM.
Take `O=C(/C=C/c1cccs1)NCC(NCCCNc1cc(=O)c2ccccc2[nH]1)c1cc(Br)cc(Br)c1` (stereo not given): the IC50 amounted to 890 nM.
Turning to `Cc1ccc(C)c2sc(N(CCCn3ccnc3)C(=O)c3ccco3)nc12`, the half-maximal inhibitory concentration (IC50) came to 870 nM.
The result for `COc1cc(NC(=O)C(c2ccc(Cl)cc2)C(C)C)cc(OC)c1OC` (stereo not given) reads 530 nM.
The result for `CCn1ccc2c(N3CCCCS3(=O)=O)cc(C(=O)N[C@@H](Cc3ccccc3)[C@H](O)CNC3CCCCC3)cc21` reads 120 nM; that for `COc1ccc(CCN2CCC(CN(C)Cc3cnn(-c4ccccc4)c3)CC2)cc1`, 1160 nM; that for `COc1ccc(NC(=O)Nc2ccc(-c3cccc(-c4nc5c(C)cccc5[nH]4)c3)cc2)cc1`, 140 nM.
Next, `Cc1cccc2[nH]c(-c3ccc(-c4ccc(CNCC5CCCO5)cc4)cc3)nc12` (stereo not given): 680 nM.
Molecule `CCc1ccc(C2CCN(CCCCNC(=O)c3ccc(-c4ccc(Cl)cc4)cc3)CC2)c(O)c1` yielded an IC50 of 890 nM.
In turn, `O=C(Nc1ccccc1)N(Cc1cccc(-c2cccc(CNCc3ccc4c(c3)OCO4)c2)c1)C1CCN(Cc2ccccc2)CC1` came in with an IC50 of 280 nM.
As to `CCCCN1Cc2c(n(CC(=O)Nc3ccccc3)c3cc(-c4ccccc4)nn3c2=O)C1=O`, the IC50 was found to be 810 nM.
In the case of `C[C@H](Cc1ccc(CCc2ccc(C[C@@H](C)NC[C@H](O)c3cccc(Cl)c3)cc2)cc1)NC[C@H](O)c1cccc(Cl)c1`, the IC50 is 940 nM.
For the molecule `CN(c1cc(NC(=O)c2ccc(F)cc2)ccn1)C1CCN(Cc2cccc(F)c2)CC1`, the IC50 turned out to be 490 nM.
Take `CNC(=O)C1Cc2c([nH]c3ccc(Br)cc23)C2(CCN(CCc3ccccc3)CC2)N1` (stereo not given): the IC50 came to 920 nM.
The result for `CS(=O)(=O)c1ccc(CNCc2ccc(-c3cccc(-c4nc5ccccc5[nH]4)c3)cc2)cc1` reads 330 nM; that for `NC1CCCN(Cc2cccc(-c3ccc(-c4nc5ccc(C(F)(F)F)cc5[nH]4)cc3)c2)C1` (stereo not given), 520 nM; that for `O=C(NC1CCN(Cc2ccc(Cl)cc2)CC1)c1cn(-c2ccccc2)nc1-c1cccnc1`, 970 nM.
The result for `c1ccc(-c2cccc(-c3ccccn3)n2)nc1` reads 900 nM; that for `O=C(/C=C/c1ccc(Cl)c(Cl)c1)NC1CCC(CN2CCC(c3c[nH]c4ccccc34)CC2)CC1` (stereo not given), 230 nM.
The molecule `COc1cc(Cl)c(C)cc1-n1cc(C(=O)c2cc(Br)ccc2O)cc(C#N)c1=O` gave a 50% inhibitory concentration (IC50) of 870 nM.
The result for `Cc1ccc(-n2c(C)nc3c(Nc4ccc(-c5ccncc5)cc4)ncnc32)c(C)c1` reads 100 nM; that for `CN(C)c1ccc(CN2CCC(CNC(=O)c3cc(-c4ccccc4Cl)cs3)C2)cc1` (stereo not given), 1440 nM; that for `COc1cccc(CNC(=O)c2cccc(-c3ccc(CN4CCC(N5CCCC5)CC4)cc3)n2)c1`, 1790 nM.
The result for `CCNc1cc(C(=O)N[C@@H](Cc2ccccc2)[C@H](O)CNC(CC)c2cccc(Cl)c2)cc(N2CCCCS2(=O)=O)c1` (stereo not given in full) reads 50 nM; that for `CCOc1ccc2nc(NC(=O)c3csnn3)sc2c1`, 480 nM; that for `CN(Cc1ccccc1)C1CCCN(c2cc(NC(=O)c3cccs3)ccn2)C1` (stereo not given), 1130 nM.
Next, `CC(=O)Nc1cccc(C(=O)Nc2ccc(-c3cccc(-c4nc5ccc(F)cc5[nH]4)c3)cc2)c1`: 630 nM; `CN1CCN(Cc2ccc(-c3ccc4c(Nc5ccc(Oc6ccccn6)cc5)ccnc4c3)o2)CC1`: 140 nM.
Consider `CCN(CCC1(c2ccc(Cl)c(Cl)c2)CN(C(=O)c2cc(OC)c(OC)c(OC)c2)CCO1)[C@@H]1C[C@@H]2c3ccccc3C[C@@H]21` (stereo not given in full), for which the IC50 worked out at 430 nM.
The result for `Cc1cccc2[nH]c(-c3cccc(-c4cccc(NC(=O)c5cccnc5)c4)c3)nc12` reads 230 nM; that for `COc1cc2nc(N(C)Cc3cc4c(Cl)cccc4s3)nc(N)c2cc1OC`, 950 nM.
Next, `O=C(c1cc2ccccc2o1)N1CCc2cc3nccc(N4CCN5CCC[C@H]5C4)c3cc21`: 810 nM; `Oc1ccc(Cc2cc(Oc3c(I)cc(CCc4ncc[nH]4)cc3I)ccc2O)cc1`: 710 nM.

One may read the IC50 as the concentration needed to halve the response being measured. Read a low IC50 as higher potency.

For the origin of these results see PubChem BioAssay AID2305 (GlaxoSmithKline (GSK), 2010).
